This passage reports IC50 results from ChEMBL document CHEMBL5604062, “ASAP - ZIKV NS2B-NS3 protease fluorescence dose response” (2024).

Several values for one entry are separate records, joined by “and”; a condition that tells them apart may be missing. Equal entries are not always repeated.

For the assay, the target named is Nonstructural protein 3 (Zika virus, UniProt A0A024AXB9). Nature of the assay: Functional biochemical assay to identify treatments for viral infectious disease that targets Zika NS2B-NS3 protease. Utilizing a direct enzyme activity measurement method, reading the fluorescence intensity is used to characterize the relative potency of inhibitors as IC50. Also noted: species or system PRVABC59.
Nonstructural protein 3, sequence (A0A024AXB9 whole entry): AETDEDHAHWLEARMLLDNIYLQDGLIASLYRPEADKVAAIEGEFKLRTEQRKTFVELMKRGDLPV
In general, IC50 refers to the concentration at which inhibition is half-maximal. A high value points to weaker potency in that assay. `CN1CCC([C@H]2CCCN(C(=O)Nc3ccc4c(c3)CNC4)C2)CC1`: the IC50 was over 25000 nM.

`O=C(NCC(F)F)[C@H](Nc1ccc2c(c1)CNC2)c1cc(Cl)cc(C2CC2)c1`: the IC50 is 24 nM and 23 nM and 62 nM and 15 nM and 17 nM and 65 nM. As for `Cc1cc(NC(=O)c2cc(Cl)cc3[nH]ncc23)ccc1N1CCNCC1`, the figure is 6480 nM.

The molecule `Cc1ccc(C)n1-c1ccc(Cl)cc1C(=O)Nc1ccc2c(c1)CNC2` came in with an IC50 of over 25000 nM.

For the molecule `N#C[C@H](Nc1ccc2c(c1)CNC2)c1cccc2[nH]ncc12`, the IC50 was 2610 nM. This lies in the single-digit micromolar range. Molecule `O=C(Nc1ccc2c(c1)CNC2)c1cc(Cl)cc2nccnc12` yielded an IC50 of 3340 nM. The molecule `O=C(Nc1ccc2c(c1)CNC2)N1CCC2(C1)CC(F)(F)C2` came in with an IC50 of 15700 nM. As for `CC(C)(C)c1ccc(Cl)cc1C(=O)Nc1ccc2c(c1)CNC2`, the figure is 2460 nM; as for `Cn1nc(C2CC2)cc1C(=O)Nc1cc(CCCN)ccn1`, over 25000 nM; as for `Cc1cc(C(F)(F)F)cc(C(=O)Nc2ccc3c(c2)CNC3)n1`, over 25000 nM. As for `Cc1n[nH]c2nc(Cl)cc(C(=O)Nc3ccc4c(c3)CNC4)c12`, the figure is 3710 nM; as for `O=C(Cc1cccc2[nH]ncc12)Nc1ccc2c(c1)CNC2`, over 25000 nM.

`O=C(Nc1ccc2c(c1)CNC2)[C@H]1CCCc2[nH]ncc21` came in with a 50% inhibitory concentration (IC50) of over 25000 nM. In the case of `Cc1nc(C2CC2)sc1C(=O)Nc1cc(CCCN)ccn1`, the IC50 is over 25000 nM.

With `C=C1C[C@H](c2cccc(CN)c2)[C@@H](c2cc(Cl)cc(NC(=O)OCc3ccccc3)c2)C1`, the concentration for half-maximal inhibition (IC50) was over 25000 nM. As for `O=C(Nc1ccc2c(c1)CNC2)c1c(Br)cc(Cl)c2[nH]ncc12`, the figure is 9140 nM.

Take `O=C(Nc1ccc2c(c1)CNC2)c1c(Br)ccc2[nH]ncc12`: the half-maximal inhibitory concentration (IC50) is over 25000 nM. In turn, `N#C[C@]1(Nc2ccc3c(c2)CNC3)C(=O)Nc2ccc(Cl)cc21` had an IC50 of 1540 nM. For the molecule `O=C(Nc1ccc2c(c1)CNC2)c1nccc2[nH]ncc12`, the IC50 amounted to 6080 nM. Against the preceding molecule, the IC50 is about 3.9-fold higher. With `CC(C)(C)OC(=O)N1Cc2ccc(NC(=O)c3cc(Cl)cc4[nH]ncc34)cc2C1`, the IC50 was over 25000 nM. As for `Cn1nc(C(=O)Nc2cc(CCCN)ccn2)cc1C1CC1`, the figure is over 25000 nM; as for `O=C(Nc1ccc2c(c1)CNC2)c1cc(F)cc2[nH]nnc12`, 81 nM and 132 nM.

`N#Cc1cc(Cl)cc([C@H](C#N)Nc2ccc3c(c2)CNC3)c1`: the concentration for half-maximal inhibition (IC50) is 433 nM. In other words, the sub-micromolar range.

The molecule `Cc1cnc([C@H]2CCCN(C(=O)Nc3ccc4c(c3)CNC4)C2)s1` gave a half-maximal inhibitory concentration (IC50) of over 25000 nM. `CC(C)c1ccc(Cl)cc1C(=O)Nc1ccc2c(c1)CNC2` registered an IC50 of 2340 nM. In turn, `Clc1cc(CNc2ccc3c(c2)CNC3)c2cn[nH]c2c1` yielded an IC50 of 3280 nM. As for `Cc1c(C(=O)Nc2cc(CCCN)ccn2)cnn1C1CC1`, the figure is over 25000 nM. In the case of `O=C(Nc1ccc2c(c1)CNC2)c1cc(Cl)ccc1OC1CCCC1`, the half-maximal inhibitory concentration (IC50) came out at 5030 nM.

In turn, `O=C(Nc1ccc2c(c1)OCCNC2)c1cc(Cl)cc2[nH]ncc12` had a half-inhibitory concentration (IC50) of 1660 nM. As for `CNC(=O)[C@]1(Nc2ccc3c(c2)CNC3)CCc2ccccc21`, the figure is over 25000 nM. As for `Cn1cc(CNC(=O)[C@H](Nc2ccc3c(c2)CNC3)c2cc(Cl)cc(C3CC3)c2)cn1`, the IC50 is 85 nM and 65 nM. Molecule `C(#C[C@H](Nc1ccc2c(c1)CNC2)c1cccc2[nH]ncc12)c1ccccc1` showed a half-inhibitory concentration (IC50) of over 25000 nM.

In the case of `CCc1cc(Cl)cc(C(=O)Nc2ccc3c(c2)CNC3)c1`, the IC50 is 457 nM. For `Cn1cc2cc(C#N)cc(-c3ccc4[nH]c(C(=O)O)cc4c3)c2n1`, the 50% inhibitory concentration (IC50) was over 25000 nM. In turn, `Cn1cnc2nc(Cl)cc(C(=O)Nc3ccc4c(c3)CNC4)c21` came in with an IC50 of 16200 nM. In turn, `C[C@H](NC(=O)c1cc(Cl)cc2[nH]ncc12)c1ccc2c(c1)CNC2` registered an IC50 of 1280 nM. Against the preceding molecule, the IC50 is about 13-fold lower. As for `O=C(Nc1ccc2c(c1)CNC2)c1cc(F)cc2[nH]ncc12`, the figure is 40 nM and 49 nM.

With `NCCCc1ccnc(NC(=O)c2cc(C3CC3)no2)c1`, the IC50 is over 25000 nM. Regarding `Cn1ncc2c(C(=O)Nc3ccc4c(c3)CNC4)cc(-c3cccnc3)nc21`, the IC50 was over 25000 nM. For `O=C(Nc1ccc2c(c1)CNCCO2)c1cc(Cl)cc2[nH]ncc12`, half-maximal inhibition (IC50) required 835 nM. As for `O=C(NC[C@H]1CCCO1)[C@H](Nc1ccc2c(c1)CNC2)c1cc(Cl)cc(C2CC2)c1`, the figure is 71 nM and 53 nM. As for `COC(=O)CNC(=O)[C@H](Nc1ccc2c(c1)CNC2)c1cc(Cl)cc(C2CC2)c1`, the figure is 97 nM and 73 nM; as for `CCn1ncc2c(C(=O)Nc3ccc4c(c3)CNC4)cc(C)nc21`, 4410 nM. The molecule `Cc1c(C(=O)Nc2cc(CCCN)ccn2)cc(-c2ccccc2)n1C` displayed a half-maximal inhibitory concentration (IC50) of over 25000 nM. As for `Cc1ccc2[nH]ncc2c1C(=O)Nc1ccc2c(c1)CNC2`, the figure is over 25000 nM. As for `O=C(NCC1CCOCC1)[C@H](Nc1ccc2c(c1)CNC2)c1cc(Cl)cc2[nH]ncc12`, the half-inhibitory concentration (IC50) came to 209 nM. As for `CNC(=O)c1ccnc(NC(=O)c2cc(C3CC3)n(C)c2C)c1`, the figure is over 25000 nM; as for `NCc1cc(NC(=O)c2cc(Cl)cc(NC(=O)OCc3ccccc3)c2)cc(-c2ccc(OCC(=O)O)nc2)c1`, over 25000 nM; as for `Cc1c(C(=O)Nc2cc([C@H]3CCOC3)ccn2)cc(C2CC2)n1C`, 177 nM and 82 nM and 137 nM. For `O=C(Nc1ccc2c(c1)CNC2)c1ccc(F)c2[nH]ncc12`, the IC50 was 2650 nM. This counts as single-digit micromolar. As for `O=C(NCc1ccc(F)cc1)[C@H](Nc1ccc2c(c1)CNC2)c1cc(Cl)cc2[nH]ncc12`, the figure is 78 nM and 65 nM; as for `O=C(O)c1cc2cc(-c3cc(Cl)cc4c3O[C@H](CO)C4)ccc2[nH]1`, over 25000 nM; as for `O=C(Nc1cccc2c1CNC2)c1cc(Cl)cc2[nH]ncc12`, over 25000 nM. Molecule `COCCN(C)Cc1ccnc(NC(=O)c2cc(C3CC3)n(C)c2C)c1` yielded a half-maximal inhibitory concentration (IC50) of over 25000 nM. As for `Cc1c(C(=O)Nc2ccc3c(c2)CNC3)cc(C2CC2)n1C`, the half-inhibitory concentration (IC50) amounted to 15800 nM. In other words, the double-digit micromolar range. Take `Cc1c(C(=O)Nc2cc(CCCN)ccn2)cc(C#N)n1C`: the IC50 was over 25000 nM. As for `CCn1c(C)cc(C(=O)Nc2cc(CCCN)ccn2)c1C`, the figure is over 25000 nM; as for `Cc1ccc(C(=O)Nc2ccc3c(c2)CNC3)c2[nH]ncc12`, 3390 nM; as for `Cc1c(C(=O)Nc2ncc3c(c2C#N)CCOC3)cc(C2CC2)n1C`, over 25000 nM.

Molecule `O=C(Nc1ccc2c(c1)CNC2)c1cc(Cl)ccc1-n1ccnc1` displayed an IC50 of 3540 nM. As for `O=Cc1ccc(N2CCC(C(=O)N3CCC(N4CCc5ccccc5C4)CC3)CC2)cc1`, the figure is over 782 nM. As for `O=Cc1ccc(N2CCC(C(=O)NC[C@H](O)c3ccc(O)c(O)c3)CC2)cc1`, the figure is over 12700 nM.

`O=Cc1ccc(N2CCC(C(=O)N3CCC(CCN4CCCC4)CC3)CC2)cc1` registered an IC50 of over 99900 nM. As for `O=Cc1ccc(N2CCC(C(=O)NCCc3ccccc3[N+](=O)[O-])CC2)cc1`, the figure is over 50200 nM; as for `CCN1CCN(c2ccc(NC(=O)C3CCN(c4ccc(C=O)cc4)CC3)cc2)CC1`, 81600 nM. As for `O=Cc1ccc(N2CCC(C(=O)NC[C@@H]3CCCN4CCCC[C@H]34)CC2)cc1`, the figure is over 782 nM.

`O=Cc1ccc(N2CCC(C(=O)NCCC3CCN(Cc4ccccc4)CC3)CC2)cc1` returned a half-maximal inhibitory concentration (IC50) of over 50200 nM.

`CC1CCN(CCCCNC(=O)C2CCN(c3ccc(C=O)cc3)CC2)CC1` displayed an IC50 of over 24900 nM. In turn, `O=Cc1ccc(N2CCC(C(=O)N3CCN(c4cccc(O)c4)CC3)CC2)cc1` came in with an IC50 of 49400 nM.

`O=Cc1ccc(N2CCC(C(=O)N3CCN(CCc4ccccc4)CC3)CC2)cc1` gave a half-inhibitory concentration (IC50) of over 50200 nM.
